Our source for the EC50 and melting point values is patent publication US8642620B2, “Heteroaryl-substituted amides comprising an unsaturated or cyclic linker group, and their use as pharmaceuticals” (Sanofi, priority 2005, dated 2014).

Counter-ions that a name gives are not always drawn.

For one data set, the system named is eNOS promoter. As to the kind of experiment: Activation of eNOS transcription (eNOS promoter-luciferase reporter gene assay). The data set is classed as cell-based. The note with it: human endothelial cell line stably transfected with eNOS promoter-luciferase construct; 18 h incubation; EC50 determined graphically; read-out: EC50 values of transcription induction ratios (TIR). The protocol:
Activation of eNOS transcription was measured as described in detail by Li et al., “Activation of protein kinase C alpha and/or epsilon enhances transcription of the human endothelial nitric oxide synthase gene”, Mol. Pharmacol. 53 (1998) 630. Briefly, a 3.5 kB long fragment 5′ of the starting codon of the eNOS gene was cloned, sequenced and cloned in firefly luciferase expression plasmids to monitor activation of the eNOS promoter by reporter gene activity. A human endothelial cell line stable transfected and expressing this promoter-reporter construct was used for compound testing. Cells were incubated for 18 h with the compounds.
All compounds were dissolved in sterile dimethyl sulfoxide (DMSO). A final concentration of 0.5% DMSO in complete medium was allowed. Induction of reporter gene expression in these cells was measured using a standard luciferase assay system (Promega, Cat. No. E150) according to the manufacturer's instructions. Luciferase induction in cells incubated with compounds were compared to those incubated with solvent alone. The ratio of both activities (transcription induction ratio, TIR) was plotted as a function of compound concentration. Typically, TIR values started at low concentrations at a ratio of 1, indicating no compound effect, and extended up to a maximum TIR value TIR(max) which indicates the increase of the eNOS transcription. EC50 values of transcription induction ratios as a function of compound concentration were determined graphically.
(In general: Reporter assays use an easily measured gene product as a stand-in for the process of interest.)

The melting point is the temperature, or range, at which the solid turns liquid. The molecule `O=C1CNC(=O)N1C1CC1c1ccc(-c2ccc(F)c(Cl)c2)nc1` (racemic) [Example 21, 3-((E)-2-(6-(3-Chloro-4-fluorophenyl)pyridin-3-yl)cyclopropyl)imidazolidine-2,4-dione] came in with a melting point of 172 °C. Further, the EC50 in the data set on eNOS promoter is less than 500 nM. `O=C1CCCC(=O)N1CC#Cc1ccc(-c2ccccc2F)nc1` [Example 2, 1-(3-(6-(2-Fluorophenyl)pyridin-3-yl)prop-2-ynyl)piperidine-2,6-dione trifluoroacetic acid salt]: the EC50 in the data set with eNOS promoter lay within 500 to 5000 nM. Consider `O=c1ccccn1C/C=C/c1nc(-c2ccc(F)cc2)cs1` [Example 3, 1-(3-(4-(4-Fluorophenyl)thiazol-2-yl)allyl)-1H-pyridin-2-one], for which the EC50 in the data set with eNOS promoter was 500 to 5000 nM. Same read-out and setting: in the case of `CC1(C)NC(=O)N(C/C=C/c2ccc(-c3ccc(F)cc3)nc2)C1=O` [Example 11, 3-(3-(6-(4-Fluorophenyl)pyridin-3-yl)allyl)-5,5-dimethylimidazolidine-2,4-dione trifluoroacetic acid salt] it was 500 to 5000 nM.
